According to PubChem BioAssay (NCI):
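Each compound was tested at five concentrations against cells in 96-well plates for 48 hours. Abbreviation: GI50, concentration required for 50% inhibition of growth. TGI is the concentration that stops growth completely.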

Assays:
Experiment in all cases: NCI tumour cell line growth inhibition, 48 h
[1] = tested on: LOX IMVI melanoma
[2] = tested on: NCI-H460 lung
[3] = tested on: SN12C renal
[4] = tested on: HCT-116 colon
[5] = tested on: HT29 colon
[6] = tested on: MALME-3M melanoma
[7] = tested on: K-562 leukemia
[8] = tested on: SR leukemia
[9] = tested on: HCC-2998 colon
[10] = tested on: UO-31 renal

Structure (SMILES)	GI50 [1] [nM]	TGI [1] [µM]	GI50 [2] [nM]	TGI [2] [µM]	GI50 [3] [µM]	TGI [3] [µM]	GI50 [4] [µM]	TGI [4] [µM]	GI50 [5] [nM]	TGI [5] [µM]	GI50 [6] [µM]	TGI [6] [µM]	GI50 [7] [µM]	TGI [7] [µM]	GI50 [8] [nM]	TGI [8] [µM]	GI50 [9] [µM]	TGI [9] [µM]	GI50 [10] [nM]	TGI [10] [µM]
O=C(Nc1ccc(Cl)c([N+](=O)[O-])c1)Nc1nc2ccccc2s1	3980	21	2930	9.45	3.74	19	3.57	14.9	3510	11.6	2.62	7.36	4.15	> 100	3940	16.4	3.03	13.1	2910	–
Cc1ccc(NC(c2ccccc2)c2ccc3cccnc3c2O)cc1 (centres undefined)	–	16.4	–	> 25	–	22.4	–	13.8	–	13.6	–	13.8	–	30	–	14.4	–	> 100	–	16
O=C(Nc1ccc(Cl)c(C(F)(F)F)c1)C(=O)C(C(=O)/C=C/c1ccccc1)C1OC(=O)c2ccccc21 (centres undefined)	–	> 100	–	> 100	–	> 100	–	> 100	–	> 100	–	> 100	–	> 100	–	> 100	–	> 100	–	> 100
CCNC(=O)C[C@@H]1N=C(c2ccc(Cl)cc2)c2cc(OC)ccc2-n2c(C)nnc21	844	> 100	> 100000	> 100	15.5	> 100	5.73	> 100	1020	> 100	3.49	> 100	4.18	> 100	567	> 100	5.77	> 100	659	> 100
